# Data published in patent publication US11414424B2, “Cardiac sarcomere inhibitors” (Cytokinetics, Inc., priority 2018, dated 2022).
# System: bovine cardiac myofibrils
# Assay: Myofibril assay: PK/LDH-coupled steady-state ATPase activity of skinned bovine cardiac myofibrils
# Type: biochemical
# Details: Ca2+ activating to 75% of maximal rate
# In short: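 Steady-state ATPase of detergent-skinned bovine left-ventricular myofibrils (1 mg/mL), PK/LDH-coupled NADH read at 340 nm, in PIPES/MgCl2 buffer pH 6.8 with 50 μM ATP, 0.6 mM EGTA and CaCl2 set for 50% or 75% activation. Inhibition of activity measured.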
row,CDMF75 IC15 [µM],Compound
1,1.7,"CC(C)N1CC(=O)N(Cc2ccc(Cl)c(Cl)c2)C2(CCN(c3ccc(C#N)cn3)C2)C1=O (stereo not drawn) [Compound 90, 6-(6-(3,4-dichlorobenzyl)-9-isopropyl-7,10-dioxo-2,6,9-triazaspiro[4.5]-decan-2-yl)nicotinonitrile]"
2,1.1,"CC(C)N1CC(=O)N(Cc2ccc(Cl)c(Cl)c2)C2(CCN(c3ccc(C(N)=O)cn3)C2)C1=O (stereo not drawn) [Compound 91, 6-(6-(3,4-dichlorobenzyl)-9-isopropyl-7,10-dioxo-2,6,9-triazaspiro[4.5]decan-2-yl)nicotinamide]"
3,1.0,"CC(C)N1CC(=O)N(Cc2ccc(Cl)cc2)C2(CCN(c3ccc(F)cn3)C2)C1=O (stereo not drawn) [Compound 92, 6-(4-chlorobenzyl)-2-(5-fluoropyridin-2-yl)-9-isopropyl-2,6,9-triazaspiro[4.5]decane-7,10-dione]"
4,19.7,"O=C1CN([C@@H]2CCOC2)C(=O)C2(CCN(c3ccccn3)C2)N1Cc1ccc(Cl)cc1 (stereo partly drawn) [Compound 93, 6-(4-chlorobenzyl)-2-(pyridin-2-yl)-9-((R)-tetrahydrofuran-3-yl)-2,6,9-triazaspiro-[4.5]decane-7,10-dione]"
5,36.1,"O=C1CN([C@H]2CCOC2)C(=O)C2(CCN(c3ccccn3)C2)N1Cc1ccc(Cl)cc1 (stereo partly drawn) [Compound 94, 6-(4-chlorobenzyl)-2-(pyridin-2-yl)-9-((S)-tetra-hydrofuran-3-yl)-2,6,9-triazaspiro[4.5]decane-7,10-dione]"
6,5.0,"CC(C)N1CC(=O)N(Cc2ccc(Cl)cc2)C2(CCN(c3cc(C#N)ccn3)C2)C1=O (stereo not drawn) [Compound 95, 2-(6-(4-chlorobenzyl)-9-isopropyl-7,10-dioxo-2,6,9-triazaspiro[4.5]decan-2-yl)isonicotinonitrile]"
7,4.5,"CC(C)N1CC(=O)N(Cc2ccc(Cl)cc2)C2(CCN(c3ccc(C#N)cn3)C2)C1=O (stereo not drawn) [Compound 96, 6-(6-(4-chlorobenzyl)-9-isopropyl-7,10-dioxo-2,6,9-triazaspiro[4.5]decan-2-yl)nicotinonitrile]"
8,3.1,"CC(C)N1CC(=O)N(Cc2ccc(Cl)cc2)C2(CCN(c3cc(C(N)=O)ccn3)C2)C1=O (stereo not drawn) [Compound 97, 2-(6-(4-chlorobenzyl)-9-isopropyl-7,10-dioxo-2,6,9-triazaspiro[4.5]decan-2-yl)isonicotinamide]"
9,2.4,"CC(C)N1CC(=O)N(Cc2ccc(Cl)cc2)C2(CCN(c3ccc(C(N)=O)cn3)C2)C1=O (stereo not drawn) [Compound 98, 6-(6-(4-chlorobenzyl)-9-isopropyl-7,10-dioxo-2,6,9-triazaspiro[4.5]decan-2-yl)nicotinamide]"
10,12.7,"CC(C)N1CC(=O)N(Cc2ccc(C(F)(F)F)cc2)C2(CCN(C(N)=O)C2)C1=O (stereo not drawn) [Compound 107, 9-isopropyl-7,10-dioxo-6-(4-(trifluoromethyl)benzyl)-2,6,9-triazaspiro[4.5]decane-2-carboxamide]"
11,8.3,"CC(C)N1CC(=O)N(Cc2ccc(C(F)(F)F)cc2)C2(CCN(C(=O)Nc3ccccc3)C2)C1=O (stereo not drawn) [Compound 109, 9-isopropyl-7,10-dioxo-N-phenyl-6-(4-(trifluoro-methyl)benzyl)-2,6,9-triazaspiro[4.5]decane-2-carboxamide]"
12,34.4,"COC(=O)N1CCC2(C1)C(=O)N(C(C)C)CC(=O)N2Cc1ccc(C(F)(F)F)cc1 (stereo not drawn) [Compound 110, methyl 9-isopropyl-7,10-dioxo-6-(4-(trifluoro-methyl)benzyl)-2,6,9-triazaspiro[4.5]decane-2-carboxylate]"
13,19.8,"CC(C)N1CC(=O)N(Cc2ccc(C(F)(F)F)cc2)C2(CCN(C(=O)Nc3ccncc3)C2)C1=O (stereo not drawn) [Compound 111, 9-isopropyl-7,10-dioxo-N-(pyridin-4-yl)-6-(4-(trifluoromethyl)benzyl)-2,6,9-triazaspiro[4.5]-decane-2-carboxamide]"
14,33.0,"CC(C)N1CC(=O)N(Cc2ccc(C(F)(F)F)cc2)C2(CCN(C(=O)NC(C)(C)C)C2)C1=O (stereo not drawn) [Compound 112, N-(tert-butyl)-9-isopropyl-7,10-dioxo-6-(4-(trifluoromethyl)benzyl)-2,6,9-triazaspiro[4.5]-decane-2-carboxamide]"
15,18.5,"CC(C)N1CC(=O)N(Cc2ccc(C(F)(F)F)cc2)C2(CCN(C(=O)Nc3cccnc3)C2)C1=O (stereo not drawn) [Compound 113, 9-isopropyl-7,10-dioxo-N-(pyridin-3-yl)-6-(4-(trifluoromethyl)benzyl)-2,6,9-triazaspiro[4.5]-decane-2-carboxamide]"
16,7.9,"CC(C)N1CC(=O)N(Cc2ccc(C(F)(F)F)cc2)C2(CCN(C(=O)Nc3cnn(C)c3)C2)C1=O (stereo not drawn) [Compound 114, 9-isopropyl-N-(1-methyl-1H-pyrazol-4-yl)-7,10-dioxo-6-(4-(trifluoromethyl)benzyl)-2,6,9-triazaspiro[4.5]decane-2-carboxamide]"
17,10.2,"CC(C)N1CC(=O)N(Cc2ccc(C(F)(F)F)cc2)C2(CCN(C(=O)Nc3ccc(F)cc3)C2)C1=O (stereo not drawn) [Compound 115, N-(4-fluorophenyl)-9-isopropyl-7,10-dioxo-6-(4-(trifluoromethyl)benzyl)-2,6,9-triazaspiro[4.5]decane-2-carboxamide]"

row,CDMF75 IC15 [µM],Compound
1,7.2,"CCNC(=O)N1CCC2(C1)C(=O)N(C(C)C)CC(=O)N2Cc1ccc(C(F)(F)F)cc1 (stereo not drawn) [Compound 116, N-ethyl-9-isopropyl-7,10-dioxo-6-(4-(trifluoromethyl)benzyl)-2,6,9-triazaspiro[4.5] decane-2-carboxamide]"
2,16.6,"CC(C)NC(=O)N1CCC2(C1)C(=O)N(C(C)C)CC(=O)N2Cc1ccc(C(F)(F)F)cc1 (stereo not drawn) [Compound 117, N,9-diisopropyl-7,10-dioxo-6-(4-(trifluoromethyl)benzyl)-2,6,9-triazaspiro[4.5]decane-2-carboxamide]"
3,14.0,"CC(C)N1CC(=O)N(Cc2ccc(C(F)(F)F)cc2)C2(CCN(C(=O)NC3CC3)C2)C1=O (stereo not drawn) [Compound 118, N-cyclopropyl-9-isopropyl-7,10-dioxo-6-(4-(trifluoromethyl)benzyl)-2,6,9-triazaspiro[4.5]decane-2-carboxamide]"
4,10.8,"CCNC(=O)N1CCC2(C1)C(=O)N(C(C)C)CC(=O)N2Cc1ccc(Cl)cc1 (stereo not drawn) [Compound 119, 6-(4-chlorobenzyl)-N-ethyl-9-isopropyl-7,10-dioxo-2,6,9-triazaspiro[4.5]-decane-2-carboxamide]"
5,18.3,"CC(C)N1CC(=O)N(Cc2ccc(Cl)cc2)C2(CCN(C(N)=O)C2)C1=O (stereo not drawn) [Compound 120, 6-(4-chlorobenzyl)-9-isopropyl-7,10-dioxo-2,6,9-triazaspiro[4.5]decane-2-carboxamide]"
6,9.9,"CNC(=O)N1CCC2(C1)C(=O)N(C(C)C)CC(=O)N2Cc1ccc(Cl)cc1 (stereo not drawn) [Compound 121, 6-(4-chlorobenzyl)-9-isopropyl-N-methyl-7,10-dioxo-2,6,9-triazaspiro[4.5]-decane-2-carboxamide]"
7,20.5,"CC(C)N1CC(=O)N(Cc2ccc(Cl)cc2)C2(CCN(C(=O)NC3CC3)C2)C1=O (stereo not drawn) [Compound 122, 6-(4-chlorobenzyl)-N-cyclopropyl-9-isopropyl-7,10-dioxo-2,6,9-triazaspiro[4.5]decane-2-carboxamide]"
8,11.2,"CC(C)N1CC(=O)N(Cc2ccc(Cl)cc2)C2(CCN(C(=O)Nc3ccccc3)C2)C1=O (stereo not drawn) [Compound 123, 6-(4-chlorobenzyl)-9-isopropyl-7,10-dioxo-N-phenyl-2,6,9-triazaspiro-[4.5]decane-2-carboxamide]"
9,0.8,"CC(C)N1CC(=O)N(Cc2ccc(Cl)cc2)C2(CCN(c3ccccc3)C2)C1=O (stereo not drawn) [Compound 127, 6-(4-chlorobenzyl)-9-isopropyl-2-phenyl-2,6,9-triazaspiro[4.5]decane-7,10-dione]"
10,0.8,"CC(C)N1CC(=O)N(Cc2ccc(Cl)cc2)C2(CCN(c3ccccn3)C2)C1=O (stereo not drawn) [Compound 128, 6-(4-chlorobenzyl)-9-isopropyl-2-(pyridin-2-yl)-2,6,9-triazaspiro[4.5]decane-7,10-dione]"
11,4.6,"Cc1cc(N2CCC3(C2)C(=O)N(C(C)C)CC(=O)N3Cc2ccc(Cl)cc2)ccn1 (stereo not drawn) [Compound 129, 6-(4-chlorobenzyl)-9-isopropyl-2-(2-methyl-pyridin-4-yl)-2,6,9-triazaspiro-[4.5]decane-7,10-dione]"
12,7.0,"CC(C)N1CC(=O)N(C(C)c2ccc(C(F)(F)F)cc2)C2(CN(c3ccccn3)C2)C1=O (stereo not drawn) [Compound 138, 8-isopropyl-2-(pyridin-2-yl)-5-(1-(4-(trifluoromethyl)-phenyl)ethyl)-2,5,8-triazaspiro[3.5]nonane-6,9-dione]"
13,14.8,"CNC(=O)N1CC2(C1)C(=O)N(C(C)C)CC(=O)N2C(C)c1ccc(C(F)(F)F)cc1 (stereo not drawn) [Compound 139, 8-isopropyl-N-methyl-6,9-dioxo-5-(1-(4-(trifluoromethyl)phenyl)-ethyl)-2,5,8-triazaspiro-[3.5]nonane-2-carboxamide]"
14,4.4,"CC(C)N1CC(=O)N(C(C)c2ccc(C(F)(F)F)cc2)C2(CN(c3ccccc3)C2)C1=O (stereo not drawn) [Compound 140, 8-isopropyl-2-phenyl-5-(1-(4-(trifluoromethyl)phenyl)-ethyl)-2,5,8-triazaspiro-[3.5]nonane-6,9-dione]"
15,10.7,"CC(C)N1CC(=O)N([C@H](C)c2ccc(C(F)(F)F)cc2)C2(CN(c3ccccc3)C2)C1=O [Compound 141, (R)-8-isopropyl-2-phenyl-5-(1-(4-(trifluoromethyl)-phenyl)ethyl)-2,5,8-triazaspiro[3.5]nonane-6,9-dione]"
16,0.8,"CC(C)N1CC(=O)N([C@@H](C)c2ccc(C(F)(F)F)cc2)C2(CN(c3ccccc3)C2)C1=O [Compound 142, (S)-8-isopropyl-2-phenyl-5-(1-(4-(trifluoromethyl)phenyl)ethyl)-2,5,8-triazaspiro[3.5]nonane-6,9-dione]"
